What was measured:
[1] = tested on: CA3-CA1 synapses in slices from 5×FAD mice; assay: LTP in CA3-CA1 synapses in slices from 5×FAD mice; assay type: cell-based, mouse; settings: bath application 1 μg/ml (approx. 0.3 μM)
Description: LTP was induced by application of five trains of theta-burst stimulation (TBS) with an inter-theta-train interval of 20 s (Brennaman et al., 2011). Each train consisted of 8 bursts delivered at 5 Hz. Each burst consisted of four pulses delivered at 100 Hz. Duration of pulses was 0.2 ms. For calculation of the LTP level, the mean fEPSP slope was measured between 50-60 min after TBS delivery, and it was then normalized to mean baseline fEPSP slope during 0-10 min before TBS. Stimulus artifacts in representative fEPSP examples in figures were blanked to facilitate the perception of fEPSPs recorded in the mPFC. Recording and analysis of LTP in St8Sia4^−/− mice was performed in a blind manner.
Finally, we tested if DP12 would have an effect in the 5×FAD mouse model of AD associated with amyloidosis and upregulation of extracellular glutamate and signaling through extra synaptic GluN2B receptors. Using a special slice incubation chamber with improved oxygen supply, we were able to induce LTP in CA3-CA1 synapses in slices from 5×FAD mice (FIG. 8).

[2] = tested on: AAV-GFP-Tau[R406W]-injected mice; assay: Recency test in AAV-GFP-Tau[R406W]-injected mice; assay type: in vivo, mouse; settings: intranasal delivery
Description: AAVs were produced using the AAV helper free packaging systems AAV-DJ (Cell Biolabs, Inc.). In short, HEK293 cells were transfected with the pAAV-DJ and pHelper constructs along with the viral expression constructs (pAAV vectors) encoding either eGFP or eGFP-Tau[R406W] under the control of a synapsin promotor. After three days, viruses were harvested using freeze-thaw cycles. After lysis, non-viral DNA is digested with Benzonase, and lysate is filtered through a 0.22 μm filter, washed with PBS and concentrated using Amicon Ultra-15 Centrifugal Filter Units with a cut off of 50 kDa. Titers were determined to be >10^10 GC/ml using quantitative Real-Time PCR with primers for the WPRE element in the viral genome.
For stereotaxic delivery of AAVs, mice were anesthetized in a closed chamber using isoflurane (1 ml for 30 s). […]
Animals were randomly assigned to treatment groups using a randomized block design to counterbalance differences in age. […] Novelty detection was evaluated by calculating the discrimination ratio as follows: [novel object time−familiar object time]/[novel object time+familiar object time]×100%. In the recency test, the discrimination ratio was calculated as follows: [least recent object time−most recent object time]/[least object time+most recent object time]×100%. […]

5×FAD mice = assay: Recency test (increased difficulty) in 5×FAD mice; assay type: in vivo, mouse; settings: intranasal, 0.5 mg/kg DP12 or equimolar
Description: The recency test comprised of two encoding phases followed by a retrieval phase (modified from Nelson et al., 2011). The interval between the encoding phases was 1 h, and the interval between the second encoding phase and the retrieval phase was 10 min, except for experiments in 5×FAD mice when both intervals were 90 min to make the task more difficult. In the first encoding phase, animals were placed into the open field arena and allowed to explore a pair of identical objects for 10 min. Then, a different pair of identical objects was presented in the second encoding phase (10 min total exploration time). During the retrieval phase, two different objects, one object from each encoding phase, were placed into the apparatus and animals were given 10 min to explore them.
Animals were randomly assigned to treatment groups using a randomized block design to counterbalance differences in age. The time of the day when tests were performed for different animals was also counterbalanced between treatment groups using a randomized block design. All measurements and statistical analyses were performed performed blindly, i.e. the tubes containing drugs/vehicle were coded. Exploration was defined as the animal approaching the object at a distance of less than 2 cm. The animal climbing onto the object with both hind- and forelimbs was not considered as exploration. In the same trial, objects were counterbalanced, and between trials, the placements of novel and familiar objects were changed. The objects used in the novel object recognition test were not employed in the recency test. Novelty detection was evaluated by calculating the discrimination ratio as follows: [novel object time−familiar object time]/[novel object time+familiar object time]×100%. In the recency test, the discrimination ratio was calculated as follows: [least recent object time−most recent object time]/[least object time+most recent object time]×100%. Unreliable measurements (about 10%), when animals spent in total ≤10 s near to both objects, were excluded from analysis.
As the recency test was consistently used for analysis of DP12 effects in other mouse models, it was further investigated whether 13- to 14-month-old 5×FAD mice are impaired in this form of memory. In this series of experiments, the intervals between each session during recency test were increased to 90 min to increase the difficulty to recall the temporal order of the two objects shown in the arena (FIG. 12(A)). […] To verify whether DP12 or avDP10-9OAc may improve cognitive function in the 5×FAD model of AD, these compounds or a vehicle (H2O) were intranasally delivered in the same cohort of 5×FAD mice before multiple recency test sessions (separated by 4 day-interval). The numbers of mice in each treatment group during one session were counterbalanced and each mouse received in a random order both drugs and the vehicle. […] In contrast, vehicle-treated 5×FAD mice explored the two objects equally (FIG. 12(C)).

[3] = 2 hours before test, 90 min intervals

## (α(2→8)Neu5Ac)12 [DP12]
[1]
  LTP levels 50-60 min after theta-burst stimulation: strongly increased
[2]
  rescue of impaired recent object recognition: fully rescued
5×FAD mice; [3]
  exploration of least recent versus most recent object in the retrieval phase: clear preference for the least recently explored object
  object discrimination (discrimination ratio) compared to vehicle: significant difference in object discrimination
5×FAD mice; n=11 5×FAD mice
  number of mice showing discrimination more than 20%: 10 of 11

— US20210301038A1, “POLYSIALIC ACID AND DERIVATIVES THEREOF, PHARMACEUTICAL COMPOSITION AND METHOD OF PRODUCING POLYSIALIC ACID” (Medizinische Hochschule Hannover (MHH), priority 2018, published 2021)
